Read-outs that look alike come from different tables or passages of the source.
What was measured:
NCI-H322M = conditions: 10 μM; non-small cell lung cancer cell line NCI-H322M
Source text: (§1) If the growth percent is 0%, it means that no further growth of cancer cells occurs, which is an ideal case.

SK-OV-3 = conditions: 10 μM; ovarian cancer cell line SK-OV-3
Source text: as §1

DU-145 = conditions: 10 μM; prostate cancer cell line DU-145
Source text: as §1

A549/ATCC = conditions: 10 μM; non-small cell lung cancer cell line A549/ATCC
Source text: as §1

MCF-7 = conditions: 10 μM; breast cancer cell line MCF-7
Source text: as §1

NCI-H23 = conditions: 10 μM; non-small cell lung cancer cell line NCI-H23
Source text: as §1

CAKI-1 = conditions: 10 μM; renal cell carcinoma cell line CAKI-1
Source text: as §1

OVCAR-3 = conditions: 10 μM; ovarian cancer cell line OVCAR-3
Source text: as §1

K-562 = conditions: 10 μM; leukemia cell line K-562
Source text: as §1

HT29 = conditions: 10 μM; colorectal cancer cell line HT29
Source text: as §1

SW-620 = conditions: 10 μM; colorectal cancer cell line SW-620
Source text: as §1

SF-295 = conditions: 10 μM; CNS cancer cell line SF-295
Source text: as §1

A498 = conditions: 10 μM; renal cell carcinoma cell line A498
Source text: as §1

HCC-2998 = conditions: 10 μM; colorectal cancer cell line HCC-2998
Source text: as §1

MALME-3M = conditions: 10 μM; malignant melanoma cell line MALME-3M
Source text: as §1

[1] = tested on: MDA-MB-231 triple negative breast cancer cells
Source text: After implanting MDA-MB-231 triple negative breast cancer cells to the nude mouse, the tumor has been grown to the 200 mm^3 volume.
(§2) The tumor volume and shape in the nude mouse have been observed for 24 days.

[2] = tested on: MDA-MB-231 breast cancer cell line; conditions: flow cytometry
Source text: (§3) Further, we have investigated the cell cycles of MDA-MB-231 breast cancer cell line through Flow cytometry analysis.

cyclin B1 expression = conditions: western blot; G2/M phase
Source text: as §3

[3] = tested on: ER positive breast cancer cell lines; conditions: 3 types of ER positive breast cancer cell lines
[4] = Procedure: Chemical name (IUPAC) of AGM-130 is (2′Z 3′E)-5′-hydroxy-5-nitro indirubin oxime. […] For the practical formulation of injectable aqueous solution, AGM-130 in PEG300 solution is diluted with 0.1 N Na2CO3 in saline solution to 70% aqueous solution with final concentration of 3.75 mg/mL.
[5] = tested on: MCF-7 ER positive breast cancer cells
Source text: as §2

A549 lung cancer cells = tested on: A549 lung cancer cells
Source text: The tumor has been grown after injecting A549 lung cancer cells to the nude mouse. […] The tumor growth has been observed for 27 days.
The tumor volume and shape in the nude mouse have been observed for 27 days.

[6] = tested on: TAMR-MCF-7 tamoxifen resistant breast cancer cells; assay: TAMR-MCF-7 tamoxifen resistant breast cancer xenografted model, intraperitoneal
[7] = 3 mg/kg intravenously once a week, day 0
[8] = 3 mg/kg intravenously once a week, day 3
[9] = 3 mg/kg intravenously once a week, day 6
[10] = 3 mg/kg intravenously once a week, day 9
[11] = 3 mg/kg intravenously once a week, day 12
[12] = 3 mg/kg intravenously once a week, day 15
[13] = 3 mg/kg intravenously once a week, day 18
[14] = 3 mg/kg intravenously once a week, day 21
[15] = 3 mg/kg intravenously once a week, day 24
[16] = 7 mg/kg intravenously once a week, day 0
[17] = 7 mg/kg intravenously once a week, day 3
[18] = 7 mg/kg intravenously once a week, day 6
[19] = 7 mg/kg intravenously once a week, day 9
[20] = 7 mg/kg intravenously once a week, day 12
[21] = 7 mg/kg intravenously once a week, day 15
[22] = 7 mg/kg intravenously once a week, day 18
[23] = 7 mg/kg intravenously once a week, day 21
[24] = 7 mg/kg intravenously once a week, day 24
[25] = 14 mg/kg intravenously once a week, day 0
[26] = 14 mg/kg intravenously once a week, day 3
[27] = 14 mg/kg intravenously once a week, day 6
[28] = 14 mg/kg intravenously once a week, day 9
[29] = 14 mg/kg intravenously once a week, day 12
[30] = 14 mg/kg intravenously once a week, day 15
[31] = 14 mg/kg intravenously once a week, day 18
[32] = 14 mg/kg intravenously once a week, day 21
[33] = 14 mg/kg intravenously once a week, day 24

O=C1Nc2ccc([N+](=O)[O-])cc2C1=C1Nc2ccc(O)cc2C1=NO [AGM-130, (2′Z 3′E)-5′-hydroxy-5-nitro indirubin oxime]
Growth percent (NCI-H322M): 7.21%
Growth percent (SK-OV-3): −9.52%
Growth percent (DU-145): 6.72%
Growth percent (A549/ATCC): 10.64%
Growth percent (MCF-7): 2.75%
Growth percent (NCI-H23): 3.19%
Growth percent (CAKI-1): −14.28%
Growth percent (OVCAR-3): 4.31%
Growth percent (K-562): 20.90%
Growth percent (HT29): 69.21%
Growth percent (SW-620): 3.18%
Growth percent (SF-295): 20.93%
Growth percent (A498): −24.52%
Growth percent (HCC-2998): 8.93%
Growth percent (MALME-3M): 11.73%
tumor volume reduction compared to control group ([1]; 3 mg/kg intravenously): about 31%
volume of tumor [1, 7]: 341.5 ± 14.4
volume of tumor [1, 8]: 474.6 ± 26.4
volume of tumor [1, 9]: 602.5 ± 44.1
volume of tumor [1, 10]: 693.1 ± 61.0
volume of tumor [1, 11]: 838.0 ± 79.9
volume of tumor [1, 12]: 996.9 ± 79.9
volume of tumor [1, 13]: 1217.5 ± 81.8
volume of tumor [1, 14]: 1398.0 ± 78.1
volume of tumor [1, 15]: 1871.4 ± 175.5
tumor volume reduction compared to control group ([1]; 7 mg/kg intravenously): about 47%
volume of tumor [1, 16]: 355.4 ± 10.7
volume of tumor [1, 17]: 451.9 ± 10.2
volume of tumor [1, 18]: 543.4 ± 10.9
volume of tumor [1, 19]: 615.5 ± 19.0
volume of tumor [1, 20]: 651.0 ± 47.1
volume of tumor [1, 21]: 677.9 ± 46.7
volume of tumor [1, 22]: 899.6 ± 59.6
volume of tumor [1, 23]: 1108.9 ± 88.1
volume of tumor [1, 24]: 1436.1 ± 84.8
tumor volume reduction compared to control group ([1]; 14 mg/kg intravenously): about 61%
volume of tumor [1, 25]: 342.1 ± 20.7
volume of tumor [1, 26]: 408.5 ± 10.3
volume of tumor [1, 27]: 470.8 ± 20.4
volume of tumor [1, 28]: 525.4 ± 35.6
volume of tumor [1, 29]: 535.3 ± 39.0
volume of tumor [1, 30]: 581.5 ± 44.8
volume of tumor [1, 31]: 696.1 ± 54.6
volume of tumor [1, 32]: 831.0 ± 75.1
volume of tumor [1, 33]: 1064.3 ± 39.8
weight of tumor ([1]; intravenously, FIG. 6): dose-dependently reduced
cell cycle phases [2]: decreased G1 phase and increased G2/M phase
cyclin B1 expression (cyclin B1 expression): remarkably reduced
IC50 [3]: < 1 µM
solubility ([4]; in DMF and DMSO): soluble
solubility ([4]; in ethanol and acetone): very difficult to dissolve
solubility ([4]; in water): practically insoluble
tumor volume reduction compared to control group ([5]; 3 mg/kg intravenously): about 49%
volume of tumor [5, 7]: 131.9 ± 8.6
volume of tumor [5, 8]: 167.5 ± 7.1
volume of tumor [5, 9]: 182.3 ± 4.2
volume of tumor [5, 10]: 253.3 ± 7.9
volume of tumor [5, 11]: 311.9 ± 2.3
volume of tumor [5, 12]: 337.5 ± 11.0
volume of tumor [5, 13]: 359.8 ± 15.6
volume of tumor [5, 14]: 408.2 ± 19.0
volume of tumor [5, 15]: 434.5 ± 18.3
tumor volume reduction compared to control group ([5]; 7 mg/kg intravenously): about 64%
volume of tumor [5, 16]: 129.1 ± 3.8
volume of tumor [5, 17]: 166.9 ± 7.4
volume of tumor [5, 18]: 190.0 ± 6.3
volume of tumor [5, 19]: 205.6 ± 11.4
volume of tumor [5, 20]: 235.6 ± 7.1
volume of tumor [5, 21]: 267.3 ± 9.4
volume of tumor [5, 22]: 288.1 ± 6.2
volume of tumor [5, 23]: 300.2 ± 15.4
volume of tumor [5, 24]: 310.1 ± 18.2
tumor volume reduction compared to control group ([5]; 14 mg/kg intravenously): about 69%
volume of tumor [5, 25]: 127.8 ± 2.4
volume of tumor [5, 26]: 156.8 ± 4.7
volume of tumor [5, 27]: 180.6 ± 5.0
volume of tumor [5, 28]: 202.9 ± 3.8
volume of tumor [5, 29]: 210.6 ± 5.1
volume of tumor [5, 30]: 234.7 ± 17.8
volume of tumor [5, 31]: 249.4 ± 15.3
volume of tumor [5, 32]: 264.8 ± 12.9
volume of tumor [5, 33]: 268.7 ± 8.7
volume of tumor (A549 lung cancer cells; 10/20/40 mg/kg intraperitoneally every other day, FIG. 14): cannot be reduced significantly
weight of tumor (A549 lung cancer cells; 10/20/40 mg/kg intraperitoneally, FIG. 15a): cannot be reduced significantly
apoptosis in tumor (TUNEL assay) (A549 lung cancer cells; paraffin embedded tumor region, compared to vehicle, FIG. 15b): induces the apoptosis
reduction of tumor volume ([6]; 10 mg/kg and 40 mg/kg, FIG. 8): significantly observed
tumor volume reduction compared to control group ([6]; 10 mg/kg intraperitoneally twice a week): about 54%
tumor volume reduction compared to control group ([6]; 40 mg/kg intraperitoneally twice a week): about 45%
weight of mouse compared to control group ([6]; 10/40 mg/kg): changed significantly

From patent publication US10285979B2, “Breast cancer therapeutic agent containing 5′-hydroxy-5-nitro-indirubin-3′-oxime as active ingredient” (ANYGEN CO., LTD., priority 2016, dated 2019)
